By Ki is commonly meant a measure of affinity in units of concentration, obtained from inhibition or displacement.

The source of these data is article PMC3177945 (Bioorganic & medicinal chemistry letters, 2010).

In the test the target is AmpC β-lactamase (Escherichia coli, UniProt P00811). The experiment in a line: biochemical. Type of test: biochemical.
Sequence of AmpC β-lactamase (P00811 20-377): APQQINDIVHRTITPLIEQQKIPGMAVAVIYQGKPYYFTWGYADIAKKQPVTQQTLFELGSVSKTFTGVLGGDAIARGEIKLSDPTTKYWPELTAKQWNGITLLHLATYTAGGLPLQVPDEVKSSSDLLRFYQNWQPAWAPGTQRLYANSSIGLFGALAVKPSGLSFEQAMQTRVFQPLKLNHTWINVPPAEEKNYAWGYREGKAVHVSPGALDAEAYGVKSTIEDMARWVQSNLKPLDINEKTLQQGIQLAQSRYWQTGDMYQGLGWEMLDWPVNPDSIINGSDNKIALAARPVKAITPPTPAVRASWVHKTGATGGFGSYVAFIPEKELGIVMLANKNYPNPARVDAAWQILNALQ

As to `Cc1noc(C)c1S(=O)(=O)Nc1cc(B(O)O)ccc1C(=O)O` [compound 12], for the setting “4-carboxy derivative vs non-carboxylate analog (6–9, 1)”, the “increase of affinity for AmpC compared to non-carboxylate analog” value is listed as “performed worse with respect to its analog”.

The compound `O=C(O)c1ccc(C(=O)Nc2cccc(S(=O)(=O)Nc3cc(B(O)O)ccc3C(=O)O)c2)cc1` [compound 13] gave a Ki of 100 nM.
